Results reported in patent US20090062267A1, “L-ALANINE DERIVATIVES AS a5beta1 ANTAGONISTS” (ASTRAZENECA AB, priority 2007, published 2009).

Biological target: recombinant human α5β1 (Homo sapiens, UniProt P05556+P08648)
Assay: In Vitro Binding Assay (a): inhibition of binding of α5β1 integrin to a fragment of human fibronectin (Fn9-10), Origen electrochemiluminescence
Conditions: geometric mean where tested more than once
Text: The assay determined the ability of compounds to inhibit binding of α5β1 integrin to a cognate ligand, a fragment of human fibronectin. The assay used Origen technology (IGEN International) to measure the compound activity. Briefly, α5β1 integrin was coated onto epoxy-paramagnetic beads (Dynal Biotech UK, Bromborough, Wirral, CH62 3QL, UK, Catalogue No 140.11) and biotinylated-fibronectin ligand was coupled to strepatividin labeled Tag-NHS-Ester (BioVeris Corporation, Witney, Oxfordshire, OX28 4GE, UK, Catalogue No 110034). The ruthenium-labeled tag emits an electrochemiluminescence signal upon stimulation which is detected by the Origen reader. Thus, interaction of integrin and ligand causes association of bead and tag, and the resulting electrochemiluminescence signal reflects the level of integrin interaction with fibronectin.
20 μg of recombinant human α5β1 was coated onto 4×10(7) epoxy-paramagnetic beads according to manufacturers instructions at 4° C. for 24 hours. Integrin coating and corresponding activity was subsequently measured for each batch but typically, 25 ng of coated protein was used per assay well.
A DNA fragment encoding the domains 9-10 (amino-acids 1325-1509) of human fibronectin (Swiss-Prot Accession No. P02751) was isolated from cDNA libraries using standard molecular biology and PCR cloning techniques. The cDNA fragment was sub-cloned into a pT73.3 expression vector containing a GST-epitope tag (developed at AstraZeneca; Bagnall et al., Protein Expression and Purification, 2003, 27: 1-11). Following expression in E. coli, the expressed protein, termed Fn9-10, was purified using the GST-tag using standard purification techniques. The recombinant Fn9-10 was subsequently biotinylated using a EZ-link Sulfo-NHS-LC-Biotinylation kit (Perbio Science UK Ltd., Cramlington, Northumberland, NE23 1WA, UK, Catalogue No. 21335) and made to give a final concentration of approximately 1 mg/ml. Tag-NHS-Ester was labeled with streptavidin by incubation at room temperature following manufacturers instructions and buffer-exchanged into PBS to give a concentration of 0.5 mg/ml. Immediately prior to the assay, biotinylated-Fn9-10 and Streptavidin-labeled Tag were diluted in Assay Buffer to give a final concentrations of 0.6 ug/ml and 1.5 ug/ml respectively. The Fn9-10 and Tag solutions were then mixed together in equal volumes and incubated on ice for at least 30 minutes prior to the assay.
Aliquots (20 μl) of each compound dilution were placed into each well of a 384-well round bottomed polypropylene plate (Matrix Technologies, Wilmslow, Cheshire, SK9 3LP, Catalogue No. 4340 384).
For the assay, 25 ng (20 ul) of a5b1-bead suspension and 40 μl of the Fn9-10/Tag pre-incubated solution were added to each well containing 20 μl of compound or control solution. Assay plates were then incubated at room temperature for a minimum of 6 hours before being analysed on an Origen plate reader. The minimum value was subtracted from all values, and the signal was plotted against compound concentration to generate IC50 data.
The data in the above table was generated in an assay substantially as described above in relation to Binding Assay (a). Some of the compounds shown in the table were tested more than once in the assay. For those compounds the IC50 value shown is the geometric mean of the measured IC50 values.

recombinant human α5β1, sequence (P08648 42-1049): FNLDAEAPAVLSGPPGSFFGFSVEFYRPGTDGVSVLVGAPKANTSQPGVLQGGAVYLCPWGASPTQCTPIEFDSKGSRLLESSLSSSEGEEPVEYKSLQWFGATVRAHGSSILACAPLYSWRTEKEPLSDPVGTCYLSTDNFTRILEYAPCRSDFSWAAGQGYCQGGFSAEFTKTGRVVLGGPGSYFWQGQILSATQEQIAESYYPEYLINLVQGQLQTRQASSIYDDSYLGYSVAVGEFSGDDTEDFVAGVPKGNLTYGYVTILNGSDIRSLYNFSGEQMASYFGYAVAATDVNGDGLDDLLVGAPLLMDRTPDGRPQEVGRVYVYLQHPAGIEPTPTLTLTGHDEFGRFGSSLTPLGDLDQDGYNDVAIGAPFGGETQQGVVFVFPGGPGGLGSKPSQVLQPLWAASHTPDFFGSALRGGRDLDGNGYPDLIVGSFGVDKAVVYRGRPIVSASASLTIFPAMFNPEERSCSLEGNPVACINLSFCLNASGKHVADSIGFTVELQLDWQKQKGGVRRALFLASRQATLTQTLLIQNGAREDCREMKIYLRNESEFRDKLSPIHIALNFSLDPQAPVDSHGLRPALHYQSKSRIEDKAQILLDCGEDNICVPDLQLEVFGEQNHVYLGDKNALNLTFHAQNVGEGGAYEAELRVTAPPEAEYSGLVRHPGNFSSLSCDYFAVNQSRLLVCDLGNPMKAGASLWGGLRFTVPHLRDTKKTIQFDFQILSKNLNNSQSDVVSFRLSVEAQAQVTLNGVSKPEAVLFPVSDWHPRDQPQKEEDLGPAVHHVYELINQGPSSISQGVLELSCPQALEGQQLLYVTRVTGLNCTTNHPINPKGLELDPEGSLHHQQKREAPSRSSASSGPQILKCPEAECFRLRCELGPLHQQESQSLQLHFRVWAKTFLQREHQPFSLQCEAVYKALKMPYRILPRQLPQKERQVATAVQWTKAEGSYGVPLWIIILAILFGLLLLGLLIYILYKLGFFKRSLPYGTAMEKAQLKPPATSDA
recombinant human α5β1, sequence (P05556 21-798): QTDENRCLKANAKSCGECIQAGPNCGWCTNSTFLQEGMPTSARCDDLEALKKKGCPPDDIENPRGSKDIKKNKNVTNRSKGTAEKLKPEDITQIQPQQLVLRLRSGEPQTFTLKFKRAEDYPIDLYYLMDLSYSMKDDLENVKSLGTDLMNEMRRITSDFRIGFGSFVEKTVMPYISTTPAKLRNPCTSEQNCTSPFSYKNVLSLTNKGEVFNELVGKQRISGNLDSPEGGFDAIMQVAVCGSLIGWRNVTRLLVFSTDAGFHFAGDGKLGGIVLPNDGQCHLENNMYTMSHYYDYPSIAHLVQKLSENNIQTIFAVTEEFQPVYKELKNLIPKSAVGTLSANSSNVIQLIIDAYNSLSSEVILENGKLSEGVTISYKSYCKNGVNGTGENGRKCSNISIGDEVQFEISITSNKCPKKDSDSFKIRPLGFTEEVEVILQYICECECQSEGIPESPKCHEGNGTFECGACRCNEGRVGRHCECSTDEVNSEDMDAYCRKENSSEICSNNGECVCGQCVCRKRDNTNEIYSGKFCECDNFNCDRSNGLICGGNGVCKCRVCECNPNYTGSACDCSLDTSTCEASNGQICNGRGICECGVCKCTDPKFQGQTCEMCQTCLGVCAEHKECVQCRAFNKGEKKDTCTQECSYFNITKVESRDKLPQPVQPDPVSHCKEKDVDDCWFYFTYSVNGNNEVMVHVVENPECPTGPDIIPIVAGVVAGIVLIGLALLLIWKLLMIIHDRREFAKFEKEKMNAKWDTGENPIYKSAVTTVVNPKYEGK

For CNc1cccc(CCOc2ccc(C[C@H](NC(=O)c3cc(C)cs3)C(=O)O)cc2)n1 [Example 1.27, O-{2-[6-(methylamino)pyridin-2-yl]ethyl}-N-[(4-methyl-2-thienyl)carbonyl]-L-tyrosine], the IC50 was 0.05 µM.

CNc1cccc(CCOc2ccc(C[C@H](NC(=O)c3conc3C)C(=O)O)cc2)n1 [Example 2.2, O-{2-[6-(methylamino)pyridin-2-yl]ethyl}-N-[(3-methylisoxazol-4-yl)carbonyl]-L-tyrosine] showed an IC50 of 0.023 µM.

Cc1noc(C)c1C(=O)N[C@@H](Cc1ccc(OCCc2ccc3c(n2)NCCO3)cc1)C(=O)O [Example 4.3, O-[2-(3,4-dihydro-2H-pyrido[3,2-b][1,4]oxazin-6-yl)ethyl]-N-[(3,5-dimethylisoxazol-4-yl)carbonyl]-L-tyrosine] gave an IC50 of 0.001 µM.

CNc1cccc(CCOc2ccc(C[C@H](NC(=O)c3sc(C)nc3C)C(=O)O)cc2)n1 [Example 1.5, N-[(2,4-dimethyl-1,3-thiazol-5-yl)carbonyl]-O-{2-[6-(methylamino)pyridin-2-yl]ethyl}-L-tyrosine] was tested, and the IC50 was 0.041 µM.

Molecule CNc1cccc(CCOc2ccc(C[C@H](NC(=O)c3cccnc3C)C(=O)O)cc2)n1 [Example 2.6, O-{2-[6-(methylamino)pyridin-2-yl]ethyl}-N-[(2-methylpyridin-3-yl)carbonyl]-L-tyrosine] has an IC50 of 0.034 µM.

CNc1cccc(CCOc2ccc(C[C@H](NC(=O)c3ccncc3C)C(=O)O)cc2)n1 [Example 1.21, O-{2-[6-(methylamino)pyridin-2-yl]ethyl}-N-(3-methylisonicotinoyl)-L-tyrosine] gave an IC50 of 0.01 µM.

In the case of CNc1cccc(CCOc2ccc(C[C@H](NC(=O)c3cccnc3Cl)C(=O)O)cc2)n1 [Example 3.1, N-[(2-chloropyridin-3-yl)carbonyl]-O-{2-[6-(methylamino)pyridin-2-yl]ethyl}-L-tyrosine], the IC50 is reported as 0.02 µM.

O=C(N[C@@H](Cc1ccc(OCCc2ccc3c(n2)NCCO3)cc1)C(=O)O)c1c(Cl)cncc1Cl [Example 4.1, N-[(3,5-dichloropyridin-4-yl)carbonyl]-O-[2-(3,4-dihydro-2H-pyrido[3,2-b][1,4]oxazin-6-yl)ethyl]-L-tyrosine] was tested, and the IC50 was under 0.001 µM.

Molecule CNc1cccc(CCOc2ccc(C[C@H](NC(=O)c3cnccc3Cl)C(=O)O)cc2)n1 [Example 2.8, N-[(4-chloropyridin-3-yl)carbonyl]-O-{2-[6-(methylamino)pyridin-2-yl]ethyl}-L-tyrosine] has an IC50 of 0.008 µM.

CNc1cccc(CCOc2ccc(C[C@H](NC(=O)c3ccc(C)nc3Cl)C(=O)O)cc2)n1 [Example 1.2, N-[(2-chloro-6-methylpyridin-3-yl)carbonyl]-O-{2-[6-(methylamino)pyridin-2-yl]ethyl}-L-tyrosine] was tested, and the IC50 was 0.019 µM.

With CNc1cccc(CCOc2ccc(C[C@H](NC(=O)c3c(C)nn(C)c3C)C(=O)O)cc2)n1 [Example 1.14, O-{2-[6-(methylamino)pyridin-2-yl]ethyl}-N-[(1,3,5-trimethyl-1H-pyrazol-4-yl)carbonyl]-L-tyrosine] the IC50 was 0.013 µM.

With CNc1cccc(CCOc2ccc(C[C@H](NC(=O)c3ccc(Cl)nc3Cl)C(=O)O)cc2)n1 [Example 2.4, N-[(2,6-dichloropyridin-3-yl)carbonyl]-O-{2-[6-(methylamino)pyridin-2-yl]ethyl}-L-tyrosine] the IC50 was 0.039 µM.

Cn1c(C(=O)N[C@@H](Cc2ccc(OCCc3ccc4c(n3)NCCC4)cc2)C(=O)O)c(Cl)c2ccccc21 [Example 5.3, N-[(3-chloro-1-methyl-1H-indol-2-yl)carbonyl]-O-[2-(5,6,7,8-tetrahydro-1,8-naphthyridin-2-yl)ethyl]-L-tyrosine] gave an IC50 of 0.094 µM.

CNc1cccc(CCOc2ccc(C[C@H](NC(=O)c3c[nH]nc3C)C(=O)O)cc2)n1 [Example 1.15, O-{2-[6-(methylamino)pyridin-2-yl]ethyl}-N-[(3-methyl-1H-pyrazol-4-yl)carbonyl]-L-tyrosine] gave an IC50 of 0.129 µM.

With O=C(N[C@@H](Cc1ccc(OCCc2ccc3c(n2)NCCC3)nc1)C(=O)O)c1sccc1Cl [Example 9, N-[(3-chlorothiophen-2-yl)carbonyl]-3-{6-[2-(5,6,7,8-tetrahydro-1,8-naphthyridin-2-yl)ethoxy]pyridin-3-yl}-L-alanine] the IC50 was 0.007 µM.

For CNc1cccc(CCOc2ccc(C[C@H](NC(=O)c3sccc3Cl)C(=O)O)nc2)n1 [Example 7, N-[(3-chlorothiophen-2-yl)carbonyl]-3-(5-{2-[6-(methylamino)pyridin-2-yl]ethoxy}pyridin-2-yl)-L-alanine], the IC50 was 0.021 µM.

Molecule CNc1cccc(CCOc2ccc(C[C@H](NC(=O)c3c(C)n[nH]c3C)C(=O)O)cc2)n1 [Example 1.13, N-[(3,5-dimethyl-1H-pyrazol-4-yl)carbonyl]-O-{2-[6-(methylamino)pyridin-2-yl]ethyl}-L-tyrosine] has an IC50 of 0.017 µM.

CNc1cccc(CCOc2ccc(C[C@H](NC(=O)c3cc(Cl)sc3Cl)C(=O)O)cc2)n1 [Example 1.11, N-[(2,5-dichloro-3-thienyl)carbonyl]-O-{2-[6-(methylamino)pyridin-2-yl]ethyl}-L-tyrosine] showed an IC50 of 0.015 µM.

For COc1cscc1C(=O)N[C@@H](Cc1ccc(OCCc2ccc3c(n2)NCCC3)cc1)C(=O)O [Example 5.1, N-[(4-methoxythiophen-3-yl)carbonyl]-O-[2-(5,6,7,8-tetrahydro-1,8-naphthyridin-2-yl)ethyl]-L-tyrosine], the IC50 was 0.042 µM.

For CNc1cccc(CCOc2ccc(C[C@H](NC(=O)c3ncccc3C)C(=O)O)cc2)n1 [Example 2.7, O-{2-[6-(methylamino)pyridin-2-yl]ethyl}-N-[(3-methylpyridin-2-yl)carbonyl]-L-tyrosine], the IC50 was 0.131 µM.

Cc1noc(C)c1C(=O)N[C@@H](Cc1ccc(CCCc2ccc3c(n2)NCCC3)cc1)C(=O)O [Example 5.4, N-[(3,5-dimethylisoxazol-4-yl)carbonyl]-4-[3-(5,6,7,8-tetrahydro-1,8-naphthyridin-2-yl)propyl]-L-phenylalanine] was tested, and the IC50 was 0.0022 µM.

CNc1cccc(CCOc2ccc(C[C@H](NC(=O)c3ncc(C(F)(F)F)cc3Cl)C(=O)O)cc2)n1 [Example 1.25, N-{[3-chloro-5-(trifluoromethyl)pyridin-2-yl]carbonyl}-O-{2-[6-(methylamino)pyridin-2-yl]ethyl}-L-tyrosine] was tested, and the IC50 was 0.036 µM.

With CCc1cc(C(=O)N[C@@H](Cc2ccc(OCCc3cccc(NC)n3)cc2)C(=O)O)cs1 [Example 1.28, N-[(5-ethyl-3-thienyl)carbonyl]-O-{2-[6-(methylamino)pyridin-2-yl]ethyl}-L-tyrosine] the IC50 was 0.075 µM.

In the case of CCn1nc(C)cc1C(=O)N[C@@H](Cc1ccc(OCCc2cccc(NC)n2)cc1)C(=O)O [Example 1.7, N-[(1-ethyl-3-methyl-1H-pyrazol-5-yl)carbonyl]-O-{2-[6-(methylamino)pyridin-2-yl]ethyl}-L-tyrosine], the IC50 is reported as 0.073 µM.

With CNc1cccc(CCOc2ccc(C[C@H](NC(=O)c3ccoc3C)C(=O)O)cc2)n1 [Example 1.12, O-{2-[6-(methylamino)pyridin-2-yl]ethyl}-N-(2-methyl-3-furoyl)-L-tyrosine] the IC50 was 0.021 µM.

For O=C(N[C@@H](Cc1ccc(OCCc2ccc3c(n2)NCCC3)cc1)C(=O)O)c1sccc1Cl [Example 5.2, N-[(3-chlorothiophen-2-yl)carbonyl]-O-[2-(5,6,7,8-tetrahydro-1,8-naphthyridin-2-yl)ethyl]-L-tyrosine], the IC50 was 0.001 µM.
